What all share (format): cell-based, human
One experiment concerns pCdk2. The experiment in a line: Immunoblot of pCdk2 in A375 cells. Conditions: A375, 20 µM, 48 or 72 h. On the procedure:
(§1) A375 cells were seeded in 6 cm Petri dishes (190 300 cell/dish) and treated with different compounds at 10 or 20 μM. After 48- or 72-h treatment, the cells were scraped using warm 1× sample buffer (2% SDS, 10% glycerol, 50 mM Tris-HCl, 1.75% β-mercaptoethanol, and bromophenol blue) and boiled at 99 °C for 10 min. Total protein extracts were kept at −80 °C until use.
(§2) Protein extracts were analyzed with a 7.5 or 10% polyacrylamide SDS-PAGE and transferred to a polyvinylidene difluoride membrane (PVDF, Thermo Fisher Scientific, Waltham, MA, USA). The membranes were blocked at RT for 1 h with TBST buffer (10 mM Tris-HCl pH 7.5, 100 mM NaCl, 0.1% Tween20) containing 4% Milk (Formulat). […] Immuno-detection was carried out with an ECL kit (GE-Healthcare, Little Chalfont, UK), and the chemiluminescence signals were detected with ChemiDoc (Bio-Rad, Hercules, CA, USA).
A general note: In western blotting, separated proteins are transferred to a membrane and probed.

For the next experiment, the system named is pRb. In words: Immunoblot of pRb in A375 cells. The following applies: A375, 20 µM, 48 or 72 h. As to the method: as §1, §2
Another experiment relates to MMP2 gelatinase activity. In words: Gelatin zymography of MMP2 activity in A375 cells. Conditions: A375, 10 and 20 µM, gel zymography. On the procedure: A gel zymography assay can measure the ability of matrix metalloproteinases (MMPs) to digest their substrate gelatin present in the gel. Thus, the zymographic approach allows sensitive and quantifiable analysis of the activity of MMPs that can be recognized by their molecular weight. […] Both compounds 7 and 4 at 10 and 20 µM inhibited MMP2 gelatinase activity in the A375 melanoma cell line (Figure 6B).
A375 cells were cultured in the presence of 10 or 20 µM cryptotanshinone (4), salviolone (7), or 1 µM onconase (provided by Prof. G. Gotte), as a positive control, for 48 h and then they were serum starved for 24 h. The conditioned medium was collected and 10× concentrated with an Amicon Ultra-2 Centrifugal filter unit (Merck-Millipore, Milan, Italy). Protein concentrations were determined with Coomassie (Thermo Fisher Scientific, Waltham, MA, USA) and samples treated with a non-reducing sample buffer. To separate proteins, a 7.5% SDS-PAGE was performed. The gel contained 4 mg/mL of gelatin (Sigma-Aldrich, Milan, Italy) and was washed with 50 mM Tris-HCl pH 7.5, 5 mM CaCl2, and 1 μM ZnCl2 supplemented with 2.5% Triton X-100 (Serva Electrophoresis, Heidelberg, Germany). […] The gel was stained with 0.5% Coomassie Brilliant Blue R-250 in 20% ethanol/10% acetic acid, and the gelatinase activity was detected by evaluating the presence and intensity of clear bands on the blue background.

The test system of the next experiment is A375 melanoma cell line. The experiment in a line: SRB cell viability assay in A375 cells. Conditions: for inhibition of melanoma cell viability: A375, 20 µM; for inhibition of melanoma cell viability / EC50: 72 h; for viability reduction in melanoma cells / EC50: A375, SRB; for viability reduction in melanoma cells: 40–60 µM; for EC50: Homo sapiens, A-375, read-out: half maximal effective concentration (EC50) able to reduce cell viability. As to the method:
In preliminary experiments, the evaluation of cell viability at different time after compound administration was carried out with sulforhodamine B (SRB) assay. Indeed, after 24-, 48-, and 72-h treatment, an evident time dependence in the inhibition of cell growth was registered (data not shown). Thus, to evaluate A375 and MeWo cell viability, we decided to perform further SRB experiments with each compound only after 72 h.
Human MeWo (HTB-65) and A375 (CRL-1619) melanoma cell lines as well as the normal human epidermal melanocyte (NHEM) (PCS-200-013) cell line (ATCC, Manassas, VA, USA) were cultured at 37 °C under 5% CO2 in a humidified atmosphere. Roswell Park Memorial Institute 1640 medium (RPMI, Gibco, Ref.21875, Thermo Scientific, Waltham, MA, USA) was used to culture MeWo cells, while Dulbecco’s Modified Eagle Medium (DMEM, Gibco, Ref. 61965, Thermo Scientific, Waltham, MA, USA) was used for A375 and NHEM cell lines. The culture media were supplemented with 10% fetal bovine serum (FBS, Gibco, Thermo Scientific, Waltham, MA, USA) plus 1% Antibiotic Antimycotic Solution (Gibco, Thermo Scientific). The MEK1 inhibitor U0126 (CAY-70970) and the PI3K inhibitor LY294002 (CAY-70920) were provided by Cayman Chemical, Ann Arbor, MI, USA.
Melanoma MeWo and A375 cells or NHEM were seeded in 96-well plates (5.0 × 10^3 cells/well for MeWo cells and 2.9 × 10^3 cells/well for A375 or NHEM). After 24-h culture, the cells were treated with different concentrations of compounds 1–7. After 72-h treatment, the cells were fixed by adding 25 µL/well of 50% (w/v) TCA directly into the culture medium. The plates were incubated at 4 °C for 1 h, washed four times with ddH2O, and dried at RT. Staining was performed by adding 50 µL/well of 0.04% (w/v) sulforhodamine B (SRB) sodium salt solution (Sigma-Aldrich, Milan, Italy). After 1-h incubation at RT, the plates were rinsed with 1% HAc and air-dried. SRB was solubilized in a 10 mM Tris-base solution pH 10.5 and Abs492 measured in the plate reader TECAN NanoQuant Infinite M200 Pro (Tecan Group Ltd., Männedorf, Switzerland). Six replicates for each condition/data point were performed.

The subject of a further experiment is Akt. In words: Immunoblot of total Akt in A375 cells. The following applies: A375, 20 µM, 48 and 72 h. On the procedure: as §1, §2
In a further experiment the test system is P53. In words: Immunoblot of P53 in A375 cells. The following applies: A375, 20 µM, 48 and 72 h. On the procedure:
as §1, §2

`C[C@H]1COC2=C1C(=O)C(=O)c1c2ccc2c1CCCC2(C)C` [Compound 4, cryptotanshinone]: the “pCdk2 (active form of Cdk2) expression level” value with pCdk2 is “slightly reduced”. For the same molecule, the “phosphorylation of Rb (pRb) expression level” value with pRb is “slightly reduced”. Moreover, the MMP2 gelatinase activity result in the experiment with MMP2 gelatinase activity is “inhibited”. In addition, in the experiment on A375 melanoma cell line, the “inhibition of melanoma cell viability” value is recorded as “about 50%”, the “viability reduction in melanoma cells” value is recorded as 70–80% and the EC50 is approximately 14 µM. For the same molecule, the “expression level of Akt total protein” value with Akt was “not changed”. In addition, in the experiment on P53, the P53 protein expression result is reported as “significant increase”.

Turning to `Cc1cc2ccc3c(c2cc(O)c1=O)CCCC3(C)C` [Compound 7, salviolone], the “pCdk2 (active form of Cdk2) expression level” value in the experiment on pCdk2 is “strongly reduced”. For the same molecule, the “phosphorylation of Rb (pRb) expression level” value in the experiment with pRb is listed as “strongly reduced”. The MMP2 gelatinase activity result in the experiment on MMP2 gelatinase activity was “inhibited”. In the experiment with A375 melanoma cell line, the “inhibition of melanoma cell viability” value is “about 50%”, the “viability reduction in melanoma cells” value is reported as 70–80% and the EC50 is approximately 17 µM. Also, the “expression level of Akt total protein” value in the experiment with Akt is “not changed”. Besides, the P53 protein expression result in the experiment on P53 was “significant increase”.
